Data published in US4695545A, “Culture and process for producing A41030 antibiotics” (Eli Lilly and Company, priority 1984, dated 1987).
Where “and” joins values, the source holds several entries; their conditions need not be identical. Equal values may be shown once.

Key:
[1] = system: Propionibacterium acnes; test: MIC anaerobic bacteria, agar-dilution; type: cell-based; conditions: Propionibacterium acnes 79; agar-dilution (Table 9)
[2] = system: Serratia marcescens; test: MIC aerobic bacteria, standard agar-dilution assay; type: cell-based; conditions: Serratia marcescens X99, 24 hours
[3] = system: Bacteroides thetaiotaomicron; test: MIC anaerobic bacteria, agar-dilution; type: cell-based; conditions: Bacteroides thetaiotaomicron 1438
[4] = system: Peptostreptococcus anaerobius; test: MIC anaerobic bacteria, agar-dilution; type: cell-based; conditions: Peptostreptococcus anaerobius 1428
[5] = system: S. pyogenes; test: In vivo oral activity against S. pyogenes in mice
[6] = system: Staphylococcus aureus; test: MIC aerobic bacteria, standard agar-dilution assay; type: cell-based
[7] = system: Streptococcus pneumoniae; test: MIC aerobic bacteria, standard agar-dilution assay; type: cell-based; conditions: Streptococcus pneumoniae Park I, 24 hours
[8] = system: Salmonella typhi; test: MIC aerobic bacteria, standard agar-dilution assay; type: cell-based
[9] = system: Escherichia coli; test: MIC aerobic bacteria, standard agar-dilution assay; type: cell-based
[10] = system: Bacteroides vulgatis; test: MIC anaerobic bacteria, agar-dilution; type: cell-based; conditions: Bacteroides vulgatis 1211
[11] = system: Staphylococcus epidermidis; test: MIC aerobic bacteria, standard agar-dilution assay; type: cell-based
[12] = system: Peptococcus asaccharolyticus; test: MIC anaerobic bacteria, agar-dilution; type: cell-based; conditions: Peptococcus asaccharolyticus 1302
[13] = system: Haemophilus influenzae; test: MIC aerobic bacteria, standard agar-dilution assay; type: cell-based
[14] = system: Clostridium difficile; test: MIC anaerobic bacteria, agar-dilution; type: cell-based; conditions: Clostridium difficile 2994; agar-dilution (Table 9)
[15] = system: Bacteroides corrodens; test: MIC anaerobic bacteria, agar-dilution; type: cell-based; conditions: Bacteroides corrodens 1874
[16] = system: Enterobacter cloacae; test: MIC aerobic bacteria, standard agar-dilution assay; type: cell-based
[17] = system: Fusobacterium necrophorum; test: MIC anaerobic bacteria, agar-dilution; type: cell-based; conditions: Fusobacterium necrophorum 6054A
[18] = system: Fusobacterium symbiosum; test: MIC anaerobic bacteria, agar-dilution; type: cell-based; conditions: Fusobacterium symbiosum 1470
[19] = system: Clostridium difficile; test: MIC against Clostridium difficile strains, agar-dilution; type: cell-based
Source text: The A41030 antibiotic factors A, B, C, D, E, F, and G, are also active against a number of strains of Clostridium difficile, as determined by the agardilution method.

[20] = system: Klebsiella pneumoniae; test: MIC aerobic bacteria, standard agar-dilution assay; type: cell-based; conditions: Klebsiella pueumoniae X68, 24 hours
[21] = system: S. pyogenes; test: Experimental bacterial infection in mice, subcutaneous ED50; type: in vivo; conditions: two doses subcutaneously
Procedure: (§1) All of the A41030 factors tested have shown in vivo antimicrobial activity against experimental bacterial infections. When two doses of test compound were administered subcutaneously to mice in illustrative infections, the activity observed is measured as an ED50 value [effective dose in mg./kg. to protect fifty percent of the test animals: See Warren Wick, et al., J. Bacteriol. 81, 233-235 (1961)].

[22] = system: S. pneumoniae; test: as above; type: in vivo; conditions: two doses subcutaneously
Procedure: as §1

[23] = system: Staph. aureus; test: as above; type: in vivo; conditions: two doses subcutaneously
Procedure: as §1

[24] = system: Propionibacterium acnes; test: MIC against Propionibacterium acnes strains, 24-hour agar-dilution; type: cell-based
Source text: Antibiotic A41030 factors A, B and C have been tested and found to be active against a genus of anaerobic bacteria identified as Propionibacterium acnes.

[25] = system: Enterobacter aerogenes; test: MIC aerobic bacteria, standard agar-dilution assay; type: cell-based; conditions: Enterobacter aerogenes C32, 24 hours
[26] = Electrometric titration (pKa); type: physicochemical; conditions: electrometric titration in 66% dimethylformamide in water
Source text: Antibiotic A41030 factor A is a white, crystalline solid.

[27] = system: Streptococcus pyogenes; test: MIC aerobic bacteria, standard agar-dilution assay; type: cell-based; conditions: Streptococcus pyogenes C203, 24 hours
[28] = system: Bacteroides fragilis; test: MIC anaerobic bacteria, agar-dilution; type: cell-based
[29] = system: Streptococcus sp. Group D; test: MIC aerobic bacteria, standard agar-dilution assay; type: cell-based

A41030 factor B
MIC [1]: 16 µg/mL | MIC [2]: 128 µg/mL | MIC [3]: 32 µg/mL | MIC [4]: ≤ 0.25 µg/mL | in vivo oral activity [5]: > 300 mg./kg.×2 | MIC ([6]; Staphylococcus aureus S13E, agar-dilution, 24 hours): 0.125 µg/mL | MIC ([6]; in µg/mL): 0.125 and 0.25 | MIC [7]: 0.5 µg/mL | MIC ([8]; Salmonella typhi 1335, 24 hours): > 128 µg/mL | MIC ([8]; Salmonella typhi X514, 24 hours): > 128 µg/mL | MIC ([9]; Escherichia coli EC14, 24 hours): 128 µg/mL | MIC ([9]; Escherichia coli N10, 24 hours): 128 µg/mL | MIC ([9]; Escherichia coli TEM, 24 hours): 128 µg/mL | MIC [10]: 32 µg/mL | MIC ([11]; Staphylococcus epidermidis EPI1, 24 hours): 0.125 µg/mL | MIC ([11]; Staphylococcus epidermidis EPI2, 24 hours): 0.5 µg/mL | MIC [12]: ≤ 0.25 µg/mL | MIC ([13]; Haemophilus influenzae 251, 24 hours): 2 µg/mL | MIC ([13]; Haemophilus influenzae Brun, 24 hours): 8 µg/mL | MIC [14]: 32 µg/mL | MIC [15]: 64 µg/mL | MIC ([16]; Enterobacter cloacae 265A, 24 hours): 128 µg/mL | MIC ([16]; Enterobacter cloacae EB5, 24 hours): 128 µg/mL | MIC [17]: 8 µg/mL | MIC [18]: 1.0 µg/mL | MIC ([19]; Clostridium difficile 78): 0.5 µg/mL | MIC ([19]; Clostridium difficile 107B): 0.5 µg/mL | MIC ([19]; Clostridium difficile 111F): 1.0 µg/mL | MIC ([19]; Clostridium difficile 1153): 1.0 µg/mL | MIC ([19]; Clostridium difficile 2634): 1.0 µg/mL | MIC ([19]; Clostridium difficile 3424-5B): 1.0 µg/mL | MIC ([19]; Clostridium difficile 3816): 1.0 µg/mL | MIC ([19]; Clostridium difficile 3950D): 1.0 µg/mL | MIC ([19]; Clostridium difficile 6890): 1.0 µg/mL | MIC ([19]; Clostridium difficile 8484): 1.0 µg/mL | MIC ([19]; Clostridium difficile A-194): 1.0 µg/mL | MIC ([19]; Clostridium difficile A-195): 1.0 µg/mL | MIC ([19]; Clostridium difficile A-196): 1.0 µg/mL | MIC ([19]; Clostridium difficile A-279): 1.0 µg/mL | MIC ([19]; Clostridium difficile A-280): 0.5 µg/mL | MIC ([19]; Clostridium difficile A-281): 1.0 µg/mL | MIC ([19]; Clostridium difficile WAL-2112): 1.0 µg/mL | MIC ([19]; Clostridium difficile WAL-3657): 1.0 µg/mL | MIC ([19]; Clostridium difficile WAL-4268): 0.5 µg/mL | MIC [20]: 128 µg/mL | ED50 [21]: 1.4 mg/kg | ED50 [22]: 1.4 mg/kg | ED50 [23]: < 0.43 mg/kg | MIC ([24]; P. acnes strain 44): 0.06 µg/mL | MIC ([24]; P. acnes strain 79): 0.06 µg/mL | MIC ([24]; P. acnes strain 101): 0.06 µg/mL | MIC ([24]; P. acnes strain 103): 0.06 µg/mL | MIC ([24]; P. acnes strain 104): 0.25 µg/mL | MIC ([24]; P. acnes strain 105): 0.06 µg/mL | MIC ([24]; P. acnes strain 106): 0.06 µg/mL | MIC ([24]; P. acnes strain 107): 0.06 µg/mL | MIC ([24]; P. acnes strain 5170): ≤ 0.03 µg/mL | MIC ([24]; P. acnes strain 5176): 0.06 µg/mL | MIC ([24]; P. acnes strain 5187): 0.06 µg/mL | MIC ([24]; P. acnes strain 5191): 0.06 µg/mL | MIC ([24]; P. acnes strain 5197): 0.06 µg/mL | MIC ([24]; P. acnes strain 5226): 0.5 µg/mL | MIC ([24]; P. acnes strain 5227): 0.06 µg/mL | MIC ([24]; P. acnes strain 5228): 0.5 µg/mL | MIC ([24]; P. acnes strain 5229): 0.25 µg/mL | MIC ([24]; P. acnes strain 5246): 0.125 µg/mL | MIC ([24]; P. acnes strain 5292): 0.06 µg/mL | MIC [25]: 64 µg/mL | pKa, first titratable group [26]: about 5.6 | pKa, second titratable group [26]: ~7.5 | possibly additional pKa's ([26]; stated as possible): > 10 | MIC [27]: 0.25 µg/mL | MIC ([28]; Bacteroides fragilis 111): 64 µg/mL | MIC ([28]; Bacteroides fragilis 1877): 32 µg/mL | MIC ([28]; Bacteroides fragilis 1936B): 32 µg/mL | MIC ([29]; Streptococcus sp. Group D 9960, 24 hours): 1 µg/mL | MIC ([29]; Streptococcus sp. Group D X66, 24 hours): 1 µg/mL
